14 compounds from patent EP2236511A2, “LIGANDS OF ALPHA-ADRENOCEPTORS AND OF DOPAMINE, HISTAMINE, IMIDAZOLINE AND SEROTONIN RECEPTORS AND THE USE THEREOF” (priority 2007, dated 2009) can be followed below.

The target in one experiment is T1, recombinant human 5-HT1A (Homo sapiens, UniProt P08908).
T1 construct: expressed in transfected cells; host or cells: CHO
T1 sequence (P08908 1-422): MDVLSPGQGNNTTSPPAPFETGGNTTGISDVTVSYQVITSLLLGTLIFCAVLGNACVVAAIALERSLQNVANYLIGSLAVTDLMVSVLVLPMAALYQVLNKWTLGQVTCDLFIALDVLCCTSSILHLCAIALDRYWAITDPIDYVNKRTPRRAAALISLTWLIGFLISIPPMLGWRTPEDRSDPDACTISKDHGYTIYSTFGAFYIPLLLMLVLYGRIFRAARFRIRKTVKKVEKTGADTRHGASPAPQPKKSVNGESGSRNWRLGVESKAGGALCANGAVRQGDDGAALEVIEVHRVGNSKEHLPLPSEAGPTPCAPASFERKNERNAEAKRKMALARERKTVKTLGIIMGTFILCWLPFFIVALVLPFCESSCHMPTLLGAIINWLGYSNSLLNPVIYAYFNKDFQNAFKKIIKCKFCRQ
Nature of the experiment: Radioligand binding to serotonin receptor 5-HT1A ([3H] 8-OH-DPAT, CHO membranes). Particulars: for inhibition at 10 µM: read-out: 5-HT1A % inhibition; for 5-HT1A % inhibition: 10 µM ligand. The source says:
J Pharmacol Exp Ther. 306(1): 301-309, 2003]. […] Metergoline is used as positive control.

Experiment [1] has as its target T2, recombinant human 5-HT6 receptor (Homo sapiens, UniProt P50406).
T2 construct: expressed in transfected cells; host or cells: HeLa
Nature of the experiment: Radioligand binding to serotonin receptor 5-HT6 ([3H] Lysergic acid diethylamide, HeLa membranes). To be noted: for 5-HT6 % inhibition: 10 µM ligand. The source says: Mol Pharmacol. 43:320-327, 1993]. […] Methiothepin is used as positive control.

In experiment [2] the target is T3, recombinant human 5-HT2C receptor (Homo sapiens, UniProt P28335).
T3 construct: expressed in transfected cells; host or cells: CHO-K1
T3 sequence (P28335 33-458): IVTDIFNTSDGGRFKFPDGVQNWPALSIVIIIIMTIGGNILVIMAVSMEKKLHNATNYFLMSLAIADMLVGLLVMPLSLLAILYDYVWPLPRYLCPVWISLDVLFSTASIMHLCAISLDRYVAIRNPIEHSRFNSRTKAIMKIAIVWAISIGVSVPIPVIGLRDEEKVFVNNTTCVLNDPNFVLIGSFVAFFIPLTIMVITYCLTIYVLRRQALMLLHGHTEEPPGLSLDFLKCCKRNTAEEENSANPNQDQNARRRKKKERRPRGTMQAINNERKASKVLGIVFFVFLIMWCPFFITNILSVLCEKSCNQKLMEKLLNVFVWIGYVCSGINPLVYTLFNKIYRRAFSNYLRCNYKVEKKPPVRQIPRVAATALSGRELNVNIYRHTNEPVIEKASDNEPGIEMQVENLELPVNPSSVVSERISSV
Nature of the experiment: Radioligand binding to serotonin receptor 5-HT2C ([3H] Mesulergine, CHO-K1 membranes). The source says: J Neurochem. 69: 1449 - 1458, 1997]. […] SB242084 is used as positive control.

The target in experiment [3] is T4, serotonin receptor 5-HT1B (Rattus norvegicus, UniProt P28564).
T4 construct: membrane species are prepared from rat brains (Wistar) by homogenization of species of rat brain-cortices; from tissue; host or cells: rat (Wistar) brain cortex
T4 sequence (P28564 whole entry): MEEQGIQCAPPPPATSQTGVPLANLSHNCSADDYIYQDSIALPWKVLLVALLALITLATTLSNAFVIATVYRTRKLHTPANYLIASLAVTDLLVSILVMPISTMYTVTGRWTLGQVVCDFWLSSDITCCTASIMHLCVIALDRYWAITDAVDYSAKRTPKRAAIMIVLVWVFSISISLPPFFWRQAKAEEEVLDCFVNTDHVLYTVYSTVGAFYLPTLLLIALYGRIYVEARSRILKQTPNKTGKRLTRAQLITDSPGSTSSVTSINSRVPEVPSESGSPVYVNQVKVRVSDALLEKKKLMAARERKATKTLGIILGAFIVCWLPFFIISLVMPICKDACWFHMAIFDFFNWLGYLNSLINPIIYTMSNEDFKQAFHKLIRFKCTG
Nature of the experiment: Radioligand binding to serotonin receptor 5-HT1B ([125I] cyanopindolol, rat brain cortex membranes). Particulars: for inhibition at 10 µM: read-out: 5-HT1B % inhibition; for 5-HT1B % inhibition: 10 µM ligand. The source says: Serotonin is used as positive control.

Experiment [4] deals with T5, recombinant human 5-HT2B receptor (Homo sapiens, UniProt P41595).
T5 construct: expressed in transfected cells; host or cells: CHO-K1
T5 sequence (P41595 whole entry): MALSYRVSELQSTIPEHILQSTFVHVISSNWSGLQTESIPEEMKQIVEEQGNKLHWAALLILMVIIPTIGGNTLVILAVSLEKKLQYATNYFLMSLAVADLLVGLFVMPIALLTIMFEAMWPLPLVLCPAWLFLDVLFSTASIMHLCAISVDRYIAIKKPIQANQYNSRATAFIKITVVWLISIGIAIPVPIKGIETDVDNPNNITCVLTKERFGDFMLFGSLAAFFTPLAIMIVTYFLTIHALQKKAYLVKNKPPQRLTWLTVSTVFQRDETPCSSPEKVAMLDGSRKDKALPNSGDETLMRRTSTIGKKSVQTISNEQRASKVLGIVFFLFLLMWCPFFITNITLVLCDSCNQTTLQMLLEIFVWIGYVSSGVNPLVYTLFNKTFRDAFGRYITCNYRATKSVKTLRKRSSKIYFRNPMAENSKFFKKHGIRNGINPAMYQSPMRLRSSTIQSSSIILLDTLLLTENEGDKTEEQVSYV
Nature of the experiment: Radioligand binding to serotonin receptor 5-HT2B ([3H] Lysergic acid diethylamide, CHO-K1 membranes).
Experimental: For this purpose membrane species are prepared from CHO-K1 cells comprising recombinant human 5-HT2B receptor by homogenization of recombinant cells in glass homogenizer with the subsequent separation of plasmatic membranes from cell nuclei, mitochondrias and cell wreckages by differential centrifugation. […] After incubation the samples are filtered in vacuo on glass-microfiber filters G/F (Millipor, USA), filters are washed three times with cold solution of medium and radioactivity is measured by scintillation counter MicroBeta 340 (Perkin Elmer, USA). […] Ketanserin is used as positive control. The tested compounds' binding to the receptor is determined by their ability to displace the radioligand and is expressed in percent of displacement (%I). Values of %I are calculated according to the following equation: %I = (TA-CA)/(TA-NA)*100, [formula] wherein: TA - is the overall radioactivity in the presence of radioligand only, CA - is the radioactivity in the presence of radioligand and tested compound and NA - is the radioactivity in the presence of radioligand and Serotonin (10 µM).

The target in experiment [5] is T6, recombinant human 5-HT2A receptor (Homo sapiens, UniProt P28223).
T6 construct: expressed in transfected cells; host or cells: CHO-K1
T6 sequence (P28223 whole entry): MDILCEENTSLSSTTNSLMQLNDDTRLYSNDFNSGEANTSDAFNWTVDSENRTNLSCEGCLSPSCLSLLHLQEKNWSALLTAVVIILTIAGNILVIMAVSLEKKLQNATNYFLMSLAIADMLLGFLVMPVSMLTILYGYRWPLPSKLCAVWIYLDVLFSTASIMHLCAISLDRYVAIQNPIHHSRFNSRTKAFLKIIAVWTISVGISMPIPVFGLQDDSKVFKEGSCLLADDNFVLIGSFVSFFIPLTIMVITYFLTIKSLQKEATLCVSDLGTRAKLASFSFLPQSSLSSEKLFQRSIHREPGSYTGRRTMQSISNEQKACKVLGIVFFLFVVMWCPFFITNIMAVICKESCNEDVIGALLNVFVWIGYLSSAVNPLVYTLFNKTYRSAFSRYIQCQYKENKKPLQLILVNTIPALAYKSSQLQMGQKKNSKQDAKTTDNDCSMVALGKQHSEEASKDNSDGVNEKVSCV
Nature of the experiment: Radioligand binding to serotonin receptor 5-HT2A ([3H] Ketanserin, CHO-K1 membranes). Particulars: 10 µM ligand. The source says:
9-C. […] J Neurochem. […] Ketanserin is used as positive control.

The target of the next experiment is T7, human 5-HT7 receptor (Homo sapiens, UniProt P34969).
T7 construct: expressed in transfected cells; host or cells: CHO
T7 sequence (P34969 whole entry): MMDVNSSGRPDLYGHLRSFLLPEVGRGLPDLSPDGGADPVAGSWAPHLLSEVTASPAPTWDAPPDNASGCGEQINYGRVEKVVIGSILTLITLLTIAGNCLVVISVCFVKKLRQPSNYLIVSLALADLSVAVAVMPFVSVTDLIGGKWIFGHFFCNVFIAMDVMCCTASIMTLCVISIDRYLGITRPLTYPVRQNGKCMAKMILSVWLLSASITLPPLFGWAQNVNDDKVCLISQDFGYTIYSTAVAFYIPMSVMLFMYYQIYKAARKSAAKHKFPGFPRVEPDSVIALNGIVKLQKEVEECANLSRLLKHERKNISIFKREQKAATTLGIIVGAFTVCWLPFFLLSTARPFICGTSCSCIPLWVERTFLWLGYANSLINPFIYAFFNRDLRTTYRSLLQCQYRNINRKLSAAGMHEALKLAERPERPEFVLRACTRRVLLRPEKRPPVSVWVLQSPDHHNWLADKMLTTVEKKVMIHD
Nature of the experiment: Radioligand binding to serotonin receptor 5-HT7 ([3H] Lysergic acid diethylamide, CHO membranes). To be noted: for inhibition at 10 µM: read-out: 5-HT7 % inhibition; for 5-HT7 % inhibition: 10 µM ligand. The source says: For this purpose sDNA of human 5-HT7 receptor is expressed in CHO cells as it was described in [Shen Y, Monsma FJ Jr, Metcalf MA, Jose PA, Hamblin MW, and Sibley DR. […] J. Biol. Chem. 1993, 268, 18200 - 18204]. […] J. Pharmacol. Exp. Ther. 1994, 268:1403-1410]. […] Methiothepin is used as positive control.

Where [6] appears, read: read-out: 5-HT2B % inhibition, 10 µM ligand.

Structures can show the parent of a compound that is named as a salt. Where two headings read alike, the source gives them in different places.

T2 sequence (P50406 whole entry): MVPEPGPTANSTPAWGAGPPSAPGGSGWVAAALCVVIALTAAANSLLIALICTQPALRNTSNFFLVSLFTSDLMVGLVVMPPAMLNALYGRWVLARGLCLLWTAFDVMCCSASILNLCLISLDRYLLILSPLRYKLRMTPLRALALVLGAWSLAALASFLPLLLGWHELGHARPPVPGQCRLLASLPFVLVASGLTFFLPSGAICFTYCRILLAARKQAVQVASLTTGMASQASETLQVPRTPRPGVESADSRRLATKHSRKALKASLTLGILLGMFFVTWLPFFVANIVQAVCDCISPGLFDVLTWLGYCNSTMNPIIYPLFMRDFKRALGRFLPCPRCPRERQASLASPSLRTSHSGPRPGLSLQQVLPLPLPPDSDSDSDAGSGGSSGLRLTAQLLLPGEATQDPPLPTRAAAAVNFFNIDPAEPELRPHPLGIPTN

A word on the inhibition: it is the drop in the measured response relative to a control, in per cent. Regarding `Cc1ccc2c(c1)c1c(n2CCc2ccc(F)cc2)CCN(C)C1` [1.1.2(1-16)·HCl], the inhibition at 10 µM stood at 37% at recombinant human 5-HT1A; 103% in experiment [1] (read-out: 5-HT6 % inhibition); 99% in experiment [2] (read-out: 5-HT2C % inhibition); 36% in experiment [3]; 91% in experiment [4] (read-out: 5-HT2B % inhibition); 99% in experiment [5]. Also, the inhibition at 10 µM on human 5-HT7 receptor came out at 95%.
On to `CN1CCc2c(c3cc(F)ccc3n2CCCc2ccccc2)C1` [1.3.3(8)·HCl], for which the inhibition at 10 µM is -4% on recombinant human 5-HT1A; 93% in experiment [1] (read-out: 5-HT6 % inhibition); 97% in experiment [2] (read-out: 5-HT2C % inhibition); 12% in experiment [3]; 96% in experiment [4] (read-out: 5-HT2B % inhibition); 97% in experiment [5]. Further, at human 5-HT7 receptor, the inhibition at 10 µM came to 83%.
Turning to `Cc1ccc2c(c1)c1c(n2CCc2ccc(C(F)(F)F)cc2)CCN(C)C1` [1.1.2(1-18)·HCl], the inhibition at 10 µM on recombinant human 5-HT1A is 53%; in experiment [1] (read-out: 5-HT6 % inhibition), 94%; in experiment [2] (read-out: 5-HT2C % inhibition), 99%; in experiment [3], 45%; in experiment [4] (setting [6]) it was 87%; in experiment [5], 100%. In addition, on human 5-HT7 receptor, the inhibition at 10 µM turned out to be 103%.
Consider `Cc1ccc2c(c1)c1c(n2CCc2ccccc2)CCCN(C)C1` [1.2.2(1-2)·HCl], for which the inhibition at 10 µM worked out at 20% on recombinant human 5-HT1A, 84% in experiment [4] (setting [6]), 89% in experiment [5] and 97% on human 5-HT7 receptor.
Take `CN1CCc2c(c3cc(F)ccc3n2CC(O)c2ccccc2)C1` (stereo not shown) [1.1.2(1-9)]: the 5-HT1A % inhibition on recombinant human 5-HT1A is -2%. For the same compound, the 5-HT6 % inhibition in experiment [1] stood at 89%. The 5-HT1B % inhibition in experiment [3] stood at 5%. The 5-HT2A % inhibition in experiment [5] was 97%. The 5-HT7 % inhibition at human 5-HT7 receptor was 84%.
The corresponding values for `Cc1ccc2c(c1)c1c(n2CC(O)c2ccccc2)CCN(C)C1` (stereo not shown) [1.1.2(1-10), 2,8-dimethyl-5-[(2-phenyl-2-hydroxy)ethyl]-1,2,3,4-tetrahydro-1H-pyrido[4,3-b]indole] are 24%, 102%, 41%, 97% and 96%.
On to `Cc1ccc(CCn2c3c(c4cc(F)ccc42)CN(C)CCC3)cn1` [1.2.2(4-2)·2HCl], for which the inhibition at 1 µM in experiment [1] (read-out: 5-HT6 % inhibition) was determined as 84%; in experiment [2] (read-out: 5-HT2C % inhibition) it was 78%. Besides, the inhibition at 10 µM in experiment [3] is 60%.
On to `Cc1ccc2c(c1)c1c(n2C#Cc2ccccc2)CCN(C)C1` [1.1(4)], for which the 5-HT1A % inhibition at recombinant human 5-HT1A is recorded as 38%. Besides, in experiment [1], the 5-HT6 % inhibition is 97%. Moreover, the 5-HT2C % inhibition in experiment [2] (10 µM ligand) is listed as 99%. Moreover, the 5-HT1B % inhibition in experiment [3] worked out at 26%. For the same compound, the 5-HT2B % inhibition in experiment [4] (10 µM ligand) is given as 86%. Besides, the 5-HT2A % inhibition in experiment [5] stood at 99%. On human 5-HT7 receptor, this compound gave a 5-HT7 % inhibition of 93%.
In the case of `Cc1ccc2c(c1)c1c(n2Cc2ccccc2)CCCN(C)C1` [1.10(4)·HCl], the inhibition at 10 µM stood at 19% on recombinant human 5-HT1A; 69% in experiment [1] (read-out: 5-HT6 % inhibition); 98% in experiment [2] (read-out: 5-HT2C % inhibition); 31% in experiment [3]; 70% in experiment [4] (read-out: 5-HT2B % inhibition); 91% in experiment [5]. The inhibition at 10 µM at human 5-HT7 receptor amounted to 75%.
Turning to `CN1CCc2c(c3cc(C(F)(F)F)ccc3n2CCc2ccccc2)C1` [1.1.2(1-7)·HCl, 2-methyl-8-trifluoromethyl-5-phenethyl-1,2,3,4-tetrahydro-1H-pyrido[4,3-b]indole], the inhibition at 10 µM turned out to be 92% in experiment [2] (read-out: 5-HT2C % inhibition); 13% in experiment [3]; 89% in experiment [4] (read-out: 5-HT2B % inhibition); 91% in experiment [5]; 94% on human 5-HT7 receptor.
In the case of `COc1ccc(CCn2c3c(c4cc(C)ccc42)CN(C)CC3)cc1` [1.1.2(1-14)·HCl], the inhibition at 10 µM amounted to 57% on recombinant human 5-HT1A; 108% in experiment [1] (read-out: 5-HT6 % inhibition); 97% in experiment [2] (read-out: 5-HT2C % inhibition); 52% in experiment [3]; 97% in experiment [4] (read-out: 5-HT2B % inhibition); 100% at human 5-HT7 receptor.
On to `CN1CCc2c(c3cc(F)ccc3n2C#Cc2ccccc2)C1` [1.1(2)], for which the 5-HT1A % inhibition on recombinant human 5-HT1A came out at 30%. The 5-HT6 % inhibition in experiment [1] turned out to be 95%. This compound displayed a 5-HT1B % inhibition in experiment [3] of 6%. In experiment [5], the 5-HT2A % inhibition is given as 99%. Moreover, the 5-HT7 % inhibition at human 5-HT7 receptor is 59%.
Consider `Cc1ccc2c(c1)c1c(n2CCCc2ccccc2)CCN(C)C1` [1.3.3(2)·HCl], for which the inhibition at 10 µM is 103% in experiment [1] (read-out: 5-HT6 % inhibition); 98% in experiment [2] (read-out: 5-HT2C % inhibition); 31% in experiment [3]; 95% in experiment [4] (read-out: 5-HT2B % inhibition); 99% in experiment [5].
`CN1CCc2c(c3cc(F)ccc3n2Cc2ccccc2)C1` [1.9(3)·HCl]: the inhibition at 10 µM was determined as 89% in experiment [1] (read-out: 5-HT6 % inhibition); 100% in experiment [2] (read-out: 5-HT2C % inhibition); 12% in experiment [3]; 95% in experiment [4] (read-out: 5-HT2B % inhibition); 97% in experiment [5]; 81% at human 5-HT7 receptor.
